The values that follow come from patent US20020137929A1, “1 - (3-heterocyclylphenyl) isothiourea, -isourea, -guanidine and -amidine herbicidal agents” (Intellectual Property Department, BASF Aktiengesellschaft, priority 1998, published 2002).

Molecules are shown by their SMILES.

For assay [1], the system named is ECHORC (Watergrass (Calif.)). The experiment in a line: Preemergence weed control under flooded paddy conditions. The format is in vivo, Echinochloa oryzoides. As to conditions: rated 3-4 weeks after treatment. Put shortly:
(§1)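 Seeds or propagules sown in top 0.5 cm of silt loam soil, flooded 1.5 to 3 cm above surface throughout. Compound in 50/50 v/v aqueous/acetone pipetted into flood water at about 0.0313 to 0.500 kg/ha. Visual 0-9 rating versus control after three to four weeks in greenhouse.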

Assay [2] deals with CHEAL (Lambsquarters, Common). The experiment in a line: Preemergence herbicidal evaluation. It is filed as in vivo, Chenopodium album. As to conditions: rated 4-5 weeks after treatment. Put shortly: (§2)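 Rating at 4–5 wk post-spray on a 0–9 visual scale vs control. Application: aqueous acetone, ~0.0156–0.500 kg/ha, to soil surface after seeding, preemergence.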
A further assay has as its system ORYSAT (Rice, Tebonnet). The experiment in a line: Preemergence herbicidal evaluation. It is filed as in vivo, Oryza sativa, (L.) Tebonnet. As to conditions: rated 4-5 weeks after treatment. In a few lines:
as §2

In a further assay the test system is ECHCG (Barnyardgrass). The experiment in a line: Postemergence herbicidal evaluation. It is filed as in vivo, Echinochloa crus-galli. As to conditions: postemergence. Put shortly: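 Two-week-old seedlings sprayed with compound in 50/50 acetone/water plus 0.5% TWEEN 20, at about 0.0156 to 0.500 kg/ha, nozzle at 40 psi. Kept in greenhouse; rated visually 4-5 weeks after treatment on a 0-9 scale versus control, repeat tests averaged.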

Another assay concerns CYPSE (Flatsedge). The experiment in a line: Preemergence weed control under flooded paddy conditions. It is filed as in vivo, Cyperus serotinus. As to conditions: rated 3-4 weeks after treatment. In a few lines: as §1
Setting [3] is: rate 0.0156 kg/ha, rating scale 0-9.
Setting [4] is: rate 0.0313 kg/ha, rating scale 0-9.
The mark [5] stands for this setting: rate 0.0625 kg/ha, rating scale 0-9.
[6] abbreviates: rate 0.1250 kg/ha, rating scale 0-9.
Setting [7] is: rate 0.2500 kg/ha, rating scale 0-9.

For `Cn1c(C(F)(F)F)cc(=O)n(-c2cc(N=C3SCC(=O)N3Cc3cccc(C(F)(F)F)c3)c(Cl)cc2F)c1=O` [Compound 142, 3-{4-Chloro-2-fluoro-5-{{3-[m-(trifluoromethyl)benzyl]-4-oxo-2-thiazolidinylidene}-amino}phenyl}-1-methyl-6-(trifluoromethyl)-2,4(1H,3H)-pyrimidinedione], the “herbicidal effect rating, ECHORC” value in assay [1] (0.0313 kg/ha) is on record as 4.0; in assay [1] (0.0625 kg/ha) it was 5.0; in assay [1] (0.1250 kg/ha), 7.0; in assay [1] (0.2500 kg/ha), 7.0. Moreover, the “Preemergence herbicidal rating CHEAL” value was 4.0 in assay [2] (setting [3]); 3.0 in assay [2] (setting [4]); 9.0 in assay [2] (setting [5]); 9.0 in assay [2] (setting [6]); 9.0 in assay [2] (setting [7]). Also, the “Preemergence herbicidal rating ORYSAT” value in the assay on ORYSAT (Rice, Tebonnet) (setting [3]) is 0.0; in the assay with ORYSAT (Rice, Tebonnet) (setting [4]), 0.0; with ORYSAT (Rice, Tebonnet) (setting [5]) it was 0.0; in the assay on ORYSAT (Rice, Tebonnet) (setting [6]), 1.0; with ORYSAT (Rice, Tebonnet) (setting [7]) it was 0.0. Moreover, the “herbicidal rating ECHCG” value is 1.0 in the assay with ECHCG (Barnyardgrass) (rate 0.0156 kg/ha), 1.0 with ECHCG (Barnyardgrass) (rate 0.0313 kg/ha) and 2.0 in the assay on ECHCG (Barnyardgrass) (rate 0.0625 kg/ha). Moreover, the “herbicidal effect rating, CYPSE” value with CYPSE (Flatsedge) (0.1250 kg/ha) and with CYPSE (Flatsedge) (0.2500 kg/ha) was 0.0 each time.
Take `COCCOC(=O)CN1C(=O)CSC1=Nc1cc(-n2c(=O)cc(C(F)(F)F)n(C)c2=O)c(F)cc1Cl` [Compound 107, 2-Methoxyethyl 2-{{2-chloro-5-[3,6-dihydro-3-methyl-2,6-dioxo-4-(trifluoromethyl)-1(2H)-pyrimidinyl]-4-fluorophenyl}imino}-4-oxo-3-thiazolidineacetate]: the “ECHORC herbicidal effect rating” value came to 0.0 in assay [1] (0.0313 kg/ha), 4.0 in assay [1] (0.0625 kg/ha), 4.0 in assay [1] (0.1250 kg/ha) and 4.0 in assay [1] (0.2500 kg/ha). The “Preemergence herbicidal rating CHEAL” value in assay [2] (rate 0.0625 kg/ha) turned out to be 6.0; in assay [2] (rate 0.1250 kg/ha) it was 9.0; in assay [2] (rate 0.2500 kg/ha), 9.0. The “Preemergence herbicidal rating ORYSAT” value in the assay on ORYSAT (Rice, Tebonnet) (rate 0.0313 kg/ha) turned out to be 0.0; with ORYSAT (Rice, Tebonnet) (rate 0.0625 kg/ha) it was 0.0; in the assay on ORYSAT (Rice, Tebonnet) (rate 0.1250 kg/ha), 0.0; in the assay on ORYSAT (Rice, Tebonnet) (rate 0.2500 kg/ha), 2.0. The “herbicidal rating ECHCG” value with ECHCG (Barnyardgrass) (rate 0.0158 kg/ha) came out at 1.0; in the assay with ECHCG (Barnyardgrass) (rate 0.0315 kg/ha), 1.0; with ECHCG (Barnyardgrass) (rate 0.0630 kg/ha), 3.0. The “CYPSE herbicidal effect rating” value in the assay with CYPSE (Flatsedge) (0.0313 kg/ha), in the assay on CYPSE (Flatsedge) (0.0625 kg/ha) and in the assay with CYPSE (Flatsedge) (0.1250 kg/ha) was 0.0 throughout.
On to `CCOC(=O)CN1C(=O)C(C(=O)OCC)SC1=Nc1cc(-n2c(=O)cc(C(F)(F)F)n(C)c2=O)c(F)cc1Cl` (centres unmarked) [Compound 127, 5-Carboxy-2-{{2-chloro-5-[3,6-dihydro-3-methyl-2,6-dioxo-4-(trifluoromethyl)-1(2H)-pyrimidinyl]-4-fluorophenyl}imino}-4-oxo-3-thiazolidineacetic acid, diethyl ester], for which the “herbicidal effect rating, ECHORC” value in assay [1] (0.0313 kg/ha) came out at 4.0; in assay [1] (0.0625 kg/ha), 7.0; in assay [1] (0.1250 kg/ha), 9.0; in assay [1] (0.2500 kg/ha) it was 9.0. The “Preemergence herbicidal rating CHEAL” value in assay [2] (rate 0.0313 kg/ha), in assay [2] (rate 0.0625 kg/ha), in assay [2] (rate 0.1250 kg/ha), in assay [2] (rate 0.2500 kg/ha) and in assay [2] (rate 0.5000 kg/ha) was 9.0 each time. Also, the “Preemergence herbicidal rating ORYSAT” value with ORYSAT (Rice, Tebonnet) (rate 0.0313 kg/ha) was found to be 0.0; in the assay with ORYSAT (Rice, Tebonnet) (rate 0.0625 kg/ha), 0.0; in the assay with ORYSAT (Rice, Tebonnet) (rate 0.1250 kg/ha) it was 0.0; in the assay with ORYSAT (Rice, Tebonnet) (rate 0.2500 kg/ha) it was 0.0; in the assay on ORYSAT (Rice, Tebonnet) (rate 0.5000 kg/ha) it was 3.0. Besides, the “herbicidal rating ECHCG” value is 0.0 in the assay on ECHCG (Barnyardgrass) (rate 0.0156 kg/ha), 0.0 with ECHCG (Barnyardgrass) (rate 0.0313 kg/ha), 1.0 with ECHCG (Barnyardgrass) (rate 0.0625 kg/ha) and 3.0 in the assay on ECHCG (Barnyardgrass) (rate 0.1250 kg/ha). In addition, the “herbicidal effect rating, CYPSE” value in the assay with CYPSE (Flatsedge) (0.0313 kg/ha), in the assay on CYPSE (Flatsedge) (0.0625 kg/ha), in the assay on CYPSE (Flatsedge) (0.1250 kg/ha) and in the assay on CYPSE (Flatsedge) (0.2500 kg/ha) was 0.0 in each case.
For the compound `Cn1c(C(F)(F)F)cc(=O)n(-c2cc(N=C3SCC(=O)N3C3CC3)c(Cl)cc2F)c1=O` [Compound 152, 3-{4-Chloro-5-[(3-cyclopropyl-4-oxo-2-thiazolidinylidene)amino]-2-fluorophenyl}-1-methyl-6-(trifluoromethyl)-2,4(1H,3H)-pyrimidinedione], the “herbicidal effect rating, ECHORC” value in assay [1] (0.0625 kg/ha), in assay [1] (0.1250 kg/ha) and in assay [1] (0.2500 kg/ha) was 0.0 throughout. In addition, the “Preemergence herbicidal rating CHEAL” value in assay [2] (setting [4]) turned out to be 2.0; in assay [2] (setting [5]), 9.0; in assay [2] (setting [6]), 9.0; in assay [2] (setting [7]), 9.0. The “Preemergence herbicidal rating ORYSAT” value in the assay on ORYSAT (Rice, Tebonnet) (setting [4]) turned out to be 0.0; in the assay on ORYSAT (Rice, Tebonnet) (setting [5]), 1.0; with ORYSAT (Rice, Tebonnet) (setting [6]), 1.0; with ORYSAT (Rice, Tebonnet) (setting [7]) it was 1.0. Further, the “herbicidal rating ECHCG” value in the assay on ECHCG (Barnyardgrass) (rate 0.0156 kg/ha) is reported as 1.0; in the assay with ECHCG (Barnyardgrass) (rate 0.0313 kg/ha), 2.0; with ECHCG (Barnyardgrass) (rate 0.0625 kg/ha), 2.0. In addition, the “herbicidal effect rating, CYPSE” value in the assay with CYPSE (Flatsedge) (0.0625 kg/ha), in the assay with CYPSE (Flatsedge) (0.1250 kg/ha) and in the assay with CYPSE (Flatsedge) (0.2500 kg/ha) was 0.0 in each case.
In the case of `COC(=O)[C@H](Cc1ccc([N+](=O)[O-])cc1)N1C(=O)CSC1=Nc1cc(-n2c(=O)cc(C(F)(F)F)n(C)c2=O)c(F)cc1Cl` [Compound 78, Methyl 2-{{2-chloro-5-[3,6-dihydro-3-methyl-2,6-dioxo-4-(trifluoromethyl)-1(2H)-pyrimidinyl]-4-fluorophenyl}imino}-4-oxo-α-(p-nitrobenzyl)-3-thiazolidineacetate, L-], the “ECHORC herbicidal effect rating” value in assay [1] (0.0313 kg/ha) stood at 7.0; in assay [1] (0.0625 kg/ha), 7.0; in assay [1] (0.1250 kg/ha) it was 9.0; in assay [1] (0.2500 kg/ha), 9.0. Moreover, the “Preemergence herbicidal rating CHEAL” value in assay [2] (rate 0.0156 kg/ha), in assay [2] (rate 0.0313 kg/ha), in assay [2] (rate 0.0625 kg/ha), in assay [2] (rate 0.1250 kg/ha) and in assay [2] (rate 0.2500 kg/ha) was 9.0 throughout. In addition, the “Preemergence herbicidal rating ORYSAT” value worked out at 0.0 in the assay on ORYSAT (Rice, Tebonnet) (rate 0.0156 kg/ha); 0.0 in the assay with ORYSAT (Rice, Tebonnet) (rate 0.0313 kg/ha); 0.0 with ORYSAT (Rice, Tebonnet) (rate 0.0625 kg/ha); 0.0 in the assay on ORYSAT (Rice, Tebonnet) (rate 0.1250 kg/ha); 0.0 in the assay with ORYSAT (Rice, Tebonnet) (rate 0.2500 kg/ha). For the same compound, the ECHCG herbicidal rating in the assay with ECHCG (Barnyardgrass) (rate 0.0158 kg/ha), with ECHCG (Barnyardgrass) (rate 0.0315 kg/ha) and in the assay on ECHCG (Barnyardgrass) (rate 0.0630 kg/ha) was 1.0 in each case. The “CYPSE herbicidal effect rating” value in the assay on CYPSE (Flatsedge) (0.0313 kg/ha) was found to be 6.0; in the assay with CYPSE (Flatsedge) (0.0625 kg/ha) it was 6.0; in the assay on CYPSE (Flatsedge) (0.1250 kg/ha), 7.0; in the assay with CYPSE (Flatsedge) (0.2500 kg/ha) it was 9.0.
Regarding `COc1cccc(CN2C(=O)CSC2=Nc2cc(-n3c(=O)cc(C(F)(F)F)n(C)c3=O)c(F)cc2Cl)c1` [Compound 137, 3-{4-Chloro-2-fluoro-5-{[3-(m-methoxybenzyl)-4-oxo-2-thiazolidinylidene]amino}phenyl}-1-methyl-6-(trifluoromethyl)-2,4(1H,3H)-pyrimidinedione], the “herbicidal effect rating, ECHORC” value in assay [1] (0.0313 kg/ha) turned out to be 3.0; in assay [1] (0.0625 kg/ha), 3.0; in assay [1] (0.1250 kg/ha), 3.0; in assay [1] (0.2500 kg/ha), 5.0. For the same compound, the “Preemergence herbicidal rating CHEAL” value in assay [2] (setting [5]), in assay [2] (setting [6]) and in assay [2] (setting [7]) was 9.0 each time. Besides, the “Preemergence herbicidal rating ORYSAT” value with ORYSAT (Rice, Tebonnet) (setting [5]) worked out at 0.0; in the assay on ORYSAT (Rice, Tebonnet) (setting [6]), 0.0; with ORYSAT (Rice, Tebonnet) (setting [7]) it was 0.0. The “herbicidal rating ECHCG” value in the assay on ECHCG (Barnyardgrass) (rate 0.0156 kg/ha) is 2.0; in the assay on ECHCG (Barnyardgrass) (rate 0.0313 kg/ha) it was 1.0; with ECHCG (Barnyardgrass) (rate 0.0625 kg/ha), 3.0. Moreover, the “herbicidal effect rating, CYPSE” value in the assay on CYPSE (Flatsedge) (0.0313 kg/ha), with CYPSE (Flatsedge) (0.0625 kg/ha), with CYPSE (Flatsedge) (0.1250 kg/ha) and in the assay on CYPSE (Flatsedge) (0.2500 kg/ha) was 0.0 throughout.
